# Experimental data: ChEMBL document CHEMBL1201862, “PubChem BioAssay data set” (2004)
# Calls of active or inactive are those of the source.
# Assays:
# [1] = system: Jurkat; experiment: antigen receptor-induced NF-kB inhibitors, dose response, Jurkat, luciferase reporter, luminescence, B- and T-cell (AID 489004); assay type: functional, cell-based; conditions: Homo sapiens;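 further: NF-kB luciferase reporter Jurkat cells stimulated with PMA plus ionomycin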
# [2] = molecular target: T1, Ubiquitin-conjugating enzyme E2 N (Homo sapiens, UniProt P61088); assay type: functional
# T1 sequence (P61088 whole entry): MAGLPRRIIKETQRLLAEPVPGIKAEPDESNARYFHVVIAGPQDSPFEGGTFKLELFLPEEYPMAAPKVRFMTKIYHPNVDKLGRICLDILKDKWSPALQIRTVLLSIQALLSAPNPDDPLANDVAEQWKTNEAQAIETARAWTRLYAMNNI
# [3] = cytotoxicity in HEK-293T NF-kB-Luc cells, dose response, cytotoxicity control for B/T-cell NF-kB inhibitor project, cell-based, uHTS hits (AID 489019); assay type: functional;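 further: IC50 reflects cytotoxicity as loss of cell viability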
# [4] = inhibitors of clade B AD8 Env fusion, dose response, cell-based, cherry-pick (AID 652062); assay type: functional;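 further: luciferase signal from cell-cell fusion driven by HIV-1 clade B AD8 Env; potency is for inhibitors of fusion seen as a drop in luminescence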
# [5] = molecular target: T2, Heat shock factor protein 1 (Mus musculus, UniProt P38532); experiment: inhibition of MG132-induced HSE-luciferase signal, confirmation, cell-based, NIH3T3, luminescence, dose retest (AID 2382); assay type: functional;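 further: NIH3T3 fibroblasts with HSF1-driven luciferase reporter stressed by proteasome inhibitor MG132; luminescence from HSF1-driven luciferase expression after 8 hours of MG132 stress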
# T2 sequence (P38532 whole entry): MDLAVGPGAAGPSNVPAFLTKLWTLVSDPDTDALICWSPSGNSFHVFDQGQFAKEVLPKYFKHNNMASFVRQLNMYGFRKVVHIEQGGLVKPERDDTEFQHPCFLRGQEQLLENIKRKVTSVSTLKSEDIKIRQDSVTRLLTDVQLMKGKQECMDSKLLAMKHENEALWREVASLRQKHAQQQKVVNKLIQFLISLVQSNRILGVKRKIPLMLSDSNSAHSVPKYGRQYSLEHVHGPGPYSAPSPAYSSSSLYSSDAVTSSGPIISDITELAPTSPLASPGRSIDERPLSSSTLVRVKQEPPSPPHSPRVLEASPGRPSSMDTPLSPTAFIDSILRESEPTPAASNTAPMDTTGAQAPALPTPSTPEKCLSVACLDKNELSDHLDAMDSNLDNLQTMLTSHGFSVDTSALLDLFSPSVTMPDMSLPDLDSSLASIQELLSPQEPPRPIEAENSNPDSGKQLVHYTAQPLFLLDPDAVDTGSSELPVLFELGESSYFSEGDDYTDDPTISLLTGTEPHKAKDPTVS
# [6] = cells; assay type: functional, cell-based
# [7] = molecular target: Lysine-specific demethylase 4C (Homo sapiens, UniProt Q9H3R0); experiment: GASC-1 (JMJD2C) histone demethylase inhibitors, dose response, biochemical, DELFIA europium, cherry-picked samples (AID 488835); assay type: functional
# [8] = molecular target: 1-phosphatidylinositol 4,5-bisphosphate phosphodiesterase gamma-1 (Homo sapiens, UniProt P19174); experiment: Counterscreen for inhibitors of phospholipase C isozymes (PLC-B3): Fluorescence-based biochemical high throughput dose response assay to identify inhibitors of phospholipase C isozymes (PLC-gamma1).
# [9] = molecular target: T3, Histone-lysine N-methyltransferase NSD2 (Homo sapiens, UniProt O96028); assay type: biochemical
# T3 sequence (O96028 whole entry): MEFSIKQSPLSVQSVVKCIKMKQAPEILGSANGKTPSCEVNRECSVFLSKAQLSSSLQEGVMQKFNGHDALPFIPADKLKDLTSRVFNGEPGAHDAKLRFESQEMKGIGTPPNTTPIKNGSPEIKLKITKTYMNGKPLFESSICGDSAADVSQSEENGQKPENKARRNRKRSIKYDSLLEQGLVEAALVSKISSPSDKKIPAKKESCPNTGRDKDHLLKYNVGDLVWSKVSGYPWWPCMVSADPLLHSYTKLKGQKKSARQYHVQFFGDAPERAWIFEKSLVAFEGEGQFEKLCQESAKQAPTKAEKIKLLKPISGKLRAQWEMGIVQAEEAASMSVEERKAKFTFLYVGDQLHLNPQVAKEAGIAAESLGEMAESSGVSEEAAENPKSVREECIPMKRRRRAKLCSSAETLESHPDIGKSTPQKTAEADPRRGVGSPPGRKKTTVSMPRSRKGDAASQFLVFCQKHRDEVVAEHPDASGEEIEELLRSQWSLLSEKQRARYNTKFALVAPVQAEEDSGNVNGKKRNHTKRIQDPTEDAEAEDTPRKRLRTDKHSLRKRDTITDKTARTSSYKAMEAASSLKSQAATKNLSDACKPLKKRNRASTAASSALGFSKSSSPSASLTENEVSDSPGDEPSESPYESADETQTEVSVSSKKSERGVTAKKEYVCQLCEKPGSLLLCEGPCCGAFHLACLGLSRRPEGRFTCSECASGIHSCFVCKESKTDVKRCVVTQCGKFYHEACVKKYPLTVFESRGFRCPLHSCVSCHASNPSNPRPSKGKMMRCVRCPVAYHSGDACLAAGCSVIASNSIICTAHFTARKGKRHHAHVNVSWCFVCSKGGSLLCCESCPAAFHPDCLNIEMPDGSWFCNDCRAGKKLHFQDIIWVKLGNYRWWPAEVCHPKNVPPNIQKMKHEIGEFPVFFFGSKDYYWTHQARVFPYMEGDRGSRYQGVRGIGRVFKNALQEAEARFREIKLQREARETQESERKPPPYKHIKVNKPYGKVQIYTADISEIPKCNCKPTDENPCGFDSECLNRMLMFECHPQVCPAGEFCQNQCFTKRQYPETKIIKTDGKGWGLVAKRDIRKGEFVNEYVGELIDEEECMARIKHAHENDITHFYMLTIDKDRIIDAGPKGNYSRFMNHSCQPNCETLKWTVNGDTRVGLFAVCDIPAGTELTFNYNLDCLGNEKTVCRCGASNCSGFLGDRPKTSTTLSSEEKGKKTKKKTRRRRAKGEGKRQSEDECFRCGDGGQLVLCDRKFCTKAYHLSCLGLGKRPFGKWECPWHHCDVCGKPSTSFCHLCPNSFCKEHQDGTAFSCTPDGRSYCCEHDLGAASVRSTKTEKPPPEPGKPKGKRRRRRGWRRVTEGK
# [10] = molecular target: Intestinal-type alkaline phosphatase (Mus musculus, UniProt P24822); experiment: PubChem AID 488785; assay type: functional
# Chain of Intestinal-type alkaline phosphatase (P24822 whole entry): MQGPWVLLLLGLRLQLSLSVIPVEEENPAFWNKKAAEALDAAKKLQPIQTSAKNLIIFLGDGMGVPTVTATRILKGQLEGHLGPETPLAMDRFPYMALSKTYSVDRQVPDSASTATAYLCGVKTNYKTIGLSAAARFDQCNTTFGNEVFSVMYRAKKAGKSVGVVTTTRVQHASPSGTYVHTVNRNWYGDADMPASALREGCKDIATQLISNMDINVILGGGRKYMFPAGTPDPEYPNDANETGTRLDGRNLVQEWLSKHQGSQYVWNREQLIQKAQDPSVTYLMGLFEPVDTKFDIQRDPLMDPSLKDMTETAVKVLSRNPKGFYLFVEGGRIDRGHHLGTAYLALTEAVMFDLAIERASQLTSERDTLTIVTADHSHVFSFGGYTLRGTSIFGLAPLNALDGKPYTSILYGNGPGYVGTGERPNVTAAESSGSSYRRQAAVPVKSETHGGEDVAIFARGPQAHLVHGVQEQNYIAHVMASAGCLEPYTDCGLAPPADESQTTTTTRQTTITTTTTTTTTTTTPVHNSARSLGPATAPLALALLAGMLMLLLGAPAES
# Chain of 1-phosphatidylinositol 4,5-bisphosphate phosphodiesterase gamma-1 (P19174 whole entry): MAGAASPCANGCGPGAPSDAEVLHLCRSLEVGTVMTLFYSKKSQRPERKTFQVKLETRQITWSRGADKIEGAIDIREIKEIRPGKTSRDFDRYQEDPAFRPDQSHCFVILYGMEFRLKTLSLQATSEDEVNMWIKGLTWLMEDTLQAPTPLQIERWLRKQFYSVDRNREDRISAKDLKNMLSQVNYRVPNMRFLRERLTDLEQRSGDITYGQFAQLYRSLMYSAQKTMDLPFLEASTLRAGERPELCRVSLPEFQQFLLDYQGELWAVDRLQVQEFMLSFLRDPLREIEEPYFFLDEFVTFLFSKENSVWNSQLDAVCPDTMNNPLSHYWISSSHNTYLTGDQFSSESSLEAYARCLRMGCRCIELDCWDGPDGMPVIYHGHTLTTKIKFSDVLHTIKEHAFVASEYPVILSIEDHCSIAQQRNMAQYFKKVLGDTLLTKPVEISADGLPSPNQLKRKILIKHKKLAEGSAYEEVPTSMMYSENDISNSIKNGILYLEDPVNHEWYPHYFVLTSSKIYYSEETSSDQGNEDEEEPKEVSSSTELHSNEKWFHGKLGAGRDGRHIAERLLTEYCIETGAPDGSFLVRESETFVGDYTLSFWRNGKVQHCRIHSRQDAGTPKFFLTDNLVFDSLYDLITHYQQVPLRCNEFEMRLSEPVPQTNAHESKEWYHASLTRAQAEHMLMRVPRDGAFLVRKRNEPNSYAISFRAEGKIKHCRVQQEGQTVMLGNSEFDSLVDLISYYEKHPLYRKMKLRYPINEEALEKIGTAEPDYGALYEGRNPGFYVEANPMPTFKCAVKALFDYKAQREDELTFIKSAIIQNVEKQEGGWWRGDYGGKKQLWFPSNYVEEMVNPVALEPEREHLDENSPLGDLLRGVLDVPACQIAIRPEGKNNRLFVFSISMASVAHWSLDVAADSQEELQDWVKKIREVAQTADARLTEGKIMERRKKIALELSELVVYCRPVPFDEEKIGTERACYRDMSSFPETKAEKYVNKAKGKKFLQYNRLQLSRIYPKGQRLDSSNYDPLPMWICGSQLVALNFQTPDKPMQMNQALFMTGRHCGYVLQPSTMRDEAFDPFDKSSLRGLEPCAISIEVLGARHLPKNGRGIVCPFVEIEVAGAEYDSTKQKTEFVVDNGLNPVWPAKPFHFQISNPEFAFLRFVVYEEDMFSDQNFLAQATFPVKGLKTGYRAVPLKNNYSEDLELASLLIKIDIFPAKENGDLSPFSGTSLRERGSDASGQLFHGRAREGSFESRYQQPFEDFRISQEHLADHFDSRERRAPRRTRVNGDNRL
# Chain of Lysine-specific demethylase 4C (Q9H3R0 whole entry): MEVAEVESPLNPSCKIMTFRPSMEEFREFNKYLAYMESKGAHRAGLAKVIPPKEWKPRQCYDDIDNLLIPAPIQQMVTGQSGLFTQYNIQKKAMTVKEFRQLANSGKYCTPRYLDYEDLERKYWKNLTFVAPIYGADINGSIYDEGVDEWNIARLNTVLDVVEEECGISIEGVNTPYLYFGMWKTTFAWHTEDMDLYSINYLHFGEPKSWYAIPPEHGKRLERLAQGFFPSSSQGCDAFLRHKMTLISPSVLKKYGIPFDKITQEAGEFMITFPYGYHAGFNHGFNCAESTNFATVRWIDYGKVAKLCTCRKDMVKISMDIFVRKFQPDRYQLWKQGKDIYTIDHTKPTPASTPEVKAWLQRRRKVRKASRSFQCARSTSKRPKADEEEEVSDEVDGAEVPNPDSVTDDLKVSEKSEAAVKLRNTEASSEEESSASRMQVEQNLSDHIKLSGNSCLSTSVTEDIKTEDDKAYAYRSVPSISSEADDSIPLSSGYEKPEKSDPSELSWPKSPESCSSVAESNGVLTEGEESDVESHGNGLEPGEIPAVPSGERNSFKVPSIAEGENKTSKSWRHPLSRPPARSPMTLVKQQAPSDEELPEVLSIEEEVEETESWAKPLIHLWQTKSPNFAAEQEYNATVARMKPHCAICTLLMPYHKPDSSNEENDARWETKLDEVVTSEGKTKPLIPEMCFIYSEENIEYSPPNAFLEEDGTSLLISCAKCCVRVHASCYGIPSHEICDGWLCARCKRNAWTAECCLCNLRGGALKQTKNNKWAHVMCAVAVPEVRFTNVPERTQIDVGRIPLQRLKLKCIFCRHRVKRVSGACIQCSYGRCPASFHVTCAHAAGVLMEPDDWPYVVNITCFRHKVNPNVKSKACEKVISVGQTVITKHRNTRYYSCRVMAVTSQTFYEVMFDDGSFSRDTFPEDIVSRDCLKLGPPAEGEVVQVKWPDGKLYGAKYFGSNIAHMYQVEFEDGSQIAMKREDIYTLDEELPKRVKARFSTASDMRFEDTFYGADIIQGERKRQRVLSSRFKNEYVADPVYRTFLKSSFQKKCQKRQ
compound,measurement,setting,value
CCCCCCCCCCOC(=O)C[n+]1c(COc2ccccc2OC)n(C)c2ccccc21,IC50,[1],4.4 µM (active)
same,IC50,[2],15.1 µM (active)
same,IC50,[3],54.4 µM (inactive)
same,AC50,[4],4.02 µM (active)
Cc1oc2c(c1C(=O)NCc1cccnc1)C(=O)c1ccccc1C2=O,EC50,[5],0.304 µM (active)
same,EC50,[6],0.232 µM (active)
O=c1ccc2c(-c3ccccc3S(=O)(=O)O)c3ccc(O)c(O)c3oc-2c1O [PYROGALLOL RED],AC50,[7],1.78 µM (active)
same,IC50,[8],14.2 µM (inactive)
same,AC50,[9],0.146 µM (active)
same,IC50,[10],12.4 µM (active)
